Source: patent US12280090B2, “Antimicrobial peptides” (priority 2018, dated 2025)
≈ marks a conversion by molar mass, not a printed value. Like-named read-outs stand apart in the source and are kept apart here. Peptide text beside a SMILES is read from it.

Tests used:
Format in all cases: cell-based
[1] = system: Escherichia coli—ATCC 25922 “wild type”
Protocol: (§1) Independent experiments were conducted with four strains of E. coli, including ATCC E. coli (Escherichia coli—ATCC 25922 “wild type”); ESBL E. coli (Escherichia coli—Extended spectrum beta-lactamase); CPO E. coli (KPC) (Escherichia coli—Carbapenemase-producing organism; Klebsiella pneumoniae carbapenemase); and CPO E. coli (NDM) (Escherichia coli—Carbapenemase-producing organism; New-Dehli Metallobetalactamase).
(§2) The ATCC (American Type Culture Collection) strains received from Cedarlane. Multi drug resistant (MDR) strains, as clinical isolates, were received from the laboratory of Dr. Linda Hoang.
(§3) Putative antimicrobial peptides were synthesized by GeneScript. A-list antimicrobial peptides re-synthesized by GeneScript. P2_CCH, P5_CCH, and P5_CCH_A19K were each synthesized under two conditions: standard synthesis using TFA, and the other with TFA-removal using acetate as a counter-ion. A MIC method, adapted for use with cationic antimicrobial peptides, was used to evaluate MIC antimicrobial activity (Hancock 1999).
(§4) The following data are presented to show the activity (MIC/MBC in μg/mL) of certain antimicrobial peptides described herein relative to a modified/synthetic version having a specified substitution. While data presented in tables above may be presented again, or may be represented in data provided in the tables below, such duplication is believed to assist the reader in readily noting comparisons. Different Run Numbers noted in the following tables denotes experiments conducted on different days, with each run reflecting multiple n values.

[2] = system: Escherichia coli—Carbapenemase-producing organism; Klebsiella pneumoniae carbapenemase
Protocol: as §1, §2, §3, §4

[3] = system: Escherichia coli—Carbapenemase-producing organism; New-Dehli Metallobetalactamase
Protocol: as §1, §2, §3, §4

[4] = system: Escherichia coli—Extended spectrum beta-lactamase
Protocol: as §1, §2, §3, §4

[5] = system: Staphylococcus aureus—ATCC 29213 “wild type”
Protocol: (§5) Independent experiments were conducted with different strains of Staphylococcus aureus—ATCC 29213 “wild type”; and Staphylococcus aureus—Methicillin resistant Staphylococcus aureus.
as §2, §3, §4

[6] = system: Methicillin resistant Staphylococcus aureus
Protocol: as §5, §2, §3, §4

Salmonella Enteritidis = system: Salmonella Enteritidis
Excerpt: as §3, §4

[7] = system: Escherichia coli: ATCC 9723H; conditions: ATCC 9723
How it was run: (§6)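 MIC and MBC were run by broth microdilution adapted from Hancock cationic-AMP and CLSI methods, in Mueller Hinton broth (+5% lysed horse blood for S. pyogenes) at about 5×10^5 CFU/mL. Peptides came from two-fold 10× stocks (2560–5 μg/mL) and were incubated 16-24 h at 37 °C. For MBC, the MIC well and two more-concentrated wells were plated on MHA for 24 h at 37 °C.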

[8] = system: Streptococcus pyogenes: unknown strain, hospital isolate; conditions: unknown strain, hospital isolate
How it was run: as §6

[9] = system: Mycobacterium smegmatis (MC^2155); conditions: Mycobacterium (MC^2155)
How it was run: as §6

[10] = system: Staphylococcus aureus: ATCC 6538P; conditions: ATCC 6538
How it was run: as §6

[11] = system: Salmonella Heidelberg (MDR)
Excerpt: as §2, §3, §4

Structure (SMILES): CC[C@H](C)[C@H](NC(=O)[C@@H](NC(=O)[C@@H]1CCCN1C(=O)[C@H](Cc1ccccc1)NC(=O)[C@@H](N)Cc1ccccc1)[C@@H](C)CC)C(=O)N[C@@H](C)C(=O)N[C@@H](CCCNC(=N)N)C(=O)N[C@@H](CC(C)C)C(=O)N[C@@H](C)C(=O)N[C@@H](C)C(=O)N[C@@H](CCCCN)C(=O)N[C@H](C(=O)N[C@H](C(=O)N1CCC[C@H]1C(=O)N[C@@H](CO)C(=O)N[C@@H](CC(C)C)C(=O)N[C@H](C(=O)N[C@@H](CS)C(=O)N[C@@H](C)C(=O)N[C@H](C(=O)N[C@H](C(=O)N[C@@H](CCCCN)C(=O)N[C@@H](CCCCN)C(=O)N[C@@H](CS)C(=O)O)[C@@H](C)O)C(C)C)C(C)C)[C@@H](C)CC)C(C)C [Peptide P5_CCH] (H-FFPIIARLAAKVIPSLVCAVTKKC-OH; N-terminus and C-terminus assumed)
- Minimum Inhibitory Concentration (MIC) [1]: 4 to 16 µg/mL
- Minimum Inhibitory Concentration (MIC) [2]: 4 to 16 µg/mL
- Minimum Inhibitory Concentration (MIC) [3]: 4 to 32 µg/mL
- Minimum Inhibitory Concentration (MIC) [4]: 8 to 32 µg/mL
- Minimum Inhibitory Concentration (MIC) ([5]; ATCC 29213): 4 to 8 µg/mL
- Minimum Inhibitory Concentration (MIC) ([6]; Methicillin resistant): 2 to 8 µg/mL
- Minimum Inhibitory Concentration (MIC) (Salmonella Enteritidis): 64 to 128 µg/mL
- MBC [7]: 32 µg/mL (≈ 12.4 µM)
- MIC [7]: 16 µg/mL (≈ 6.18 µM)
- MBC [8]: 128 µg/mL (≈ 49.4 µM)
- MIC [8]: 128 µg/mL (≈ 49.4 µM)
- MBC [9]: >256 µg/mL
- MIC [9]: 2 µg/mL (≈ 0.772 µM)
- MBC [10]: 16 µg/mL (≈ 6.18 µM)
- MIC [10]: 4 µg/mL (≈ 1.54 µM)
- Minimum Inhibitory Concentration (MIC) [11]: 32 to 128 µg/mL

Structure (SMILES): CC[C@H](C)[C@H](NC(=O)[C@H](CO)NC(=O)[C@H](CCCCN)NC(=O)CNC(=O)[C@@H](NC(=O)[C@@H](NC(=O)[C@H](CCCCN)NC(=O)[C@@H](NC(=O)[C@@H](NC(=O)[C@H](CCC(=O)O)NC(=O)[C@H](Cc1c[nH]c2ccccc12)NC(=O)[C@H](CC(C)C)NC(=O)CN)[C@@H](C)O)[C@@H](C)CC)[C@@H](C)O)[C@@H](C)O)C(=O)N[C@@H](C)C(=O)N[C@@H](CC(C)C)C(=O)N[C@@H](CC(N)=O)C(=O)N[C@@H](CC(C)C)C(=O)N[C@@H](CC(C)C)C(=O)N[C@@H](CC(=O)O)C(=O)N[C@@H](CCCCN)C(=O)N[C@H](C(=O)N[C@@H](CCCCN)C(=O)N[C@@H](CS)C(=O)N[C@@H](CCCCN)C(=O)N[C@H](C(=O)N[C@@H](C)C(=O)NCC(=O)NCC(=O)N[C@@H](CS)C(=O)N1CCC[C@H]1C(=O)N1CCC[C@H]1C(=O)O)[C@@H](C)CC)[C@@H](C)CC [Peptide P6_CCH] (H-GLWETIKTTGKSIALNLLDKIKCKIAGGCPP-OH; N-terminus and C-terminus assumed)
- Minimum Inhibitory Concentration (MIC) [1]: 8 to 16 µg/mL
- Minimum Inhibitory Concentration (MIC) [2]: 8 µg/mL
- Minimum Inhibitory Concentration (MIC) [3]: 16 to 32 µg/mL
- Minimum Inhibitory Concentration (MIC) [4]: 8 to 16 µg/mL
- Minimum Inhibitory Concentration (MIC) ([5]; S. aureus ATCC 29213, Gram positive): 128+ ug/mL
- Minimum Inhibitory Concentration (MIC) ([6]; MRSA, Gram positive): 128+ ug/mL
- MBC ([6]; Methicillin resistant): 256 µg/mL (≈ 78.3 µM)
- Minimum Inhibitory Concentration (MIC) (Salmonella Enteritidis): 64 to 128 µg/mL
- MBC [7]: 16 to 64 µg/mL
- MIC [7]: 16 to 64 µg/mL
- MBC [8]: 128 µg/mL (≈ 39.1 µM)
- MIC [8]: 128 µg/mL (≈ 39.1 µM)
- MIC [9]: 2 µg/mL (≈ 0.612 µM)
- MBC [10]: 256 µg/mL (≈ 78.3 µM)
- MIC [10]: 128 to 256 µg/mL
- Minimum Inhibitory Concentration (MIC) [11]: 64 µg/mL

Structure (SMILES): CC[C@H](C)[C@H](NC(=O)[C@H](CCCCN)NC(=O)[C@H](CCCCN)NC(=O)CNC(=O)[C@@H](NC(=O)[C@@H](NC(=O)[C@H](CCCCN)NC(=O)[C@@H](NC(=O)[C@@H](NC(=O)[C@H](CCC(=O)O)NC(=O)[C@H](Cc1c[nH]c2ccccc12)NC(=O)[C@H](CC(C)C)NC(=O)CN)[C@@H](C)O)[C@@H](C)CC)[C@@H](C)O)[C@@H](C)O)C(=O)N[C@@H](C)C(=O)N[C@@H](CC(C)C)C(=O)N[C@@H](CC(N)=O)C(=O)N[C@@H](CC(C)C)C(=O)N[C@@H](CC(C)C)C(=O)N[C@@H](CC(=O)O)C(=O)N[C@@H](CCCCN)C(=O)N[C@H](C(=O)N[C@@H](CCCCN)C(=O)N[C@@H](CS)C(=O)N[C@@H](CCCCN)C(=O)N[C@H](C(=O)N[C@@H](C)C(=O)NCC(=O)NCC(=O)N[C@@H](CS)C(=O)N1CCC[C@H]1C(=O)N1CCC[C@H]1C(=O)O)[C@@H](C)CC)[C@@H](C)CC [Peptide P6_CCH_S12K] (H-GLWETIKTTGKKIALNLLDKIKCKIAGGCPP-OH; N-terminus and C-terminus assumed)
- MBC [1]: 4 µg/mL (≈ 1.21 µM)
- MIC [1]: 4 µg/mL (≈ 1.21 µM)
- Minimum Inhibitory Concentration (MIC) [1]: 4 µg/mL
- Minimum Inhibitory Concentration (MIC) [2]: 4 µg/mL
- Minimum Inhibitory Concentration (MIC) [3]: 4 to 8 µg/mL
- MBC [4]: 4 µg/mL (≈ 1.21 µM)
- MIC [4]: 4 µg/mL (≈ 1.21 µM)
- Minimum Inhibitory Concentration (MIC) [4]: 4 µg/mL
- Minimum Inhibitory Concentration (MIC) ([5]; ATCC 29213): 64 to 128 µg/mL
- Minimum Inhibitory Concentration (MIC) ([6]; Methicillin resistant): 64 to 128 µg/mL
- Minimum Inhibitory Concentration (MIC) (Salmonella Enteritidis): 16 to 32 µg/mL
- Minimum Inhibitory Concentration (MIC) [11]: 16 to 32 µg/mL

Structure (SMILES): CC[C@H](C)[C@H](NC(=O)[C@H](Cc1ccccc1)NC(=O)[C@@H]1CCCN1C(=O)[C@H](CC(C)C)NC(=O)[C@@H](N)Cc1ccccc1)C(=O)N[C@@H](C)C(=O)N[C@@H](CCCNC(=N)N)C(=O)N[C@@H](CC(C)C)C(=O)N[C@@H](C)C(=O)N[C@@H](C)C(=O)N[C@@H](CCCCN)C(=O)N[C@H](C(=O)N[C@@H](Cc1ccccc1)C(=O)N1CCC[C@H]1C(=O)N[C@@H](CO)C(=O)N[C@H](C(=O)N[C@H](C(=O)N[C@@H](CS)C(=O)N[C@@H](CO)C(=O)N[C@H](C(=O)N[C@H](C(=O)N[C@@H](CCCCN)C(=O)N[C@@H](CCCCN)C(=O)N[C@@H](CS)C(=O)O)[C@@H](C)O)C(C)C)[C@@H](C)CC)[C@@H](C)CC)C(C)C [Ran-4] (H-FLPFIARLAAKVFPSIICSVTKKC-OH; N-terminus and C-terminus assumed)
- Minimum Inhibitory Concentration (MIC) [1]: 2 to 4 µg/mL
- Minimum Inhibitory Concentration (MIC) [2]: 4 to 8 µg/mL
- Minimum Inhibitory Concentration (MIC) [3]: 4 to 8 µg/mL
- Minimum Inhibitory Concentration (MIC) [4]: 4 to 8 µg/mL
- Minimum Inhibitory Concentration (MIC) ([5]; ATCC 29213): 64 to 128 µg/mL
- Minimum Inhibitory Concentration (MIC) ([6]; Methicillin resistant): 64 to 128 µg/mL
- Minimum Inhibitory Concentration (MIC) (Salmonella Enteritidis): 16 to 32 µg/mL
- Minimum Inhibitory Concentration (MIC) [11]: 16 to 32 µg/mL
